Assay results from the NIST ThermoML archive (doi:10.1021/acs.jced.5b00474).

Assay: xn = mol fraction of the nth substance listed
Details: 101 kPa, Liquid; for mass density: Vibrating tube method; for speed of sound: Frequency=3 MHz, Sing-around technique in a fixed-path interferometer

CN1CCCC1=O [N-methylpyrrolidone] + CC#N
Details	mass density [kg/m3]	speed of sound [m/s]
293.15 K, x1 = 0.0997	826.597	–
293.15 K, x1 = 0.2019	865.011	–
293.15 K, x1 = 0.2953	895.168	–
293.15 K, x1 = 0.4033	925.343	–
293.15 K, x1 = 0.4999	948.634	–
293.15 K, x1 = 0.5645	962.588	–
293.15 K, x1 = 0.6971	987.869	–
293.15 K, x1 = 0.7909	1002.68	–
293.15 K, x1 = 0.8906	1018.29	–
293.15 K, x1 = 1	1032.25	–
298.15 K, x1 = 0.0997	821.365	1311.6
298.15 K, x1 = 0.2019	859.919	1345.4
298.15 K, x1 = 0.2953	890.188	1375
298.15 K, x1 = 0.4033	920.48	1407.6
298.15 K, x1 = 0.4999	943.847	1434.4
298.15 K, x1 = 0.5645	957.857	1450.8
298.15 K, x1 = 0.6971	983.231	1483.7
298.15 K, x1 = 0.7909	998.089	1503.3
298.15 K, x1 = 0.8906	1013.76	1524.8
298.15 K, x1 = 1	1027.79	1544.6
303.15 K, x1 = 0.0997	816.101	1291.8
303.15 K, x1 = 0.2019	854.802	1325.7
303.15 K, x1 = 0.2953	885.193	1355.4
303.15 K, x1 = 0.4033	915.6	1387.9
303.15 K, x1 = 0.4999	939.067	1414.8
303.15 K, x1 = 0.5645	953.126	1430.7
303.15 K, x1 = 0.6971	978.597	1463.6
303.15 K, x1 = 0.7909	993.514	1483.2
303.15 K, x1 = 0.8906	1009.25	1505.1
303.15 K, x1 = 1	1023.33	1525.3
308.15 K, x1 = 0.0997	810.812	1272
308.15 K, x1 = 0.2019	849.665	1306
308.15 K, x1 = 0.2953	880.18	1335.8
308.15 K, x1 = 0.4033	910.709	1367.7
308.15 K, x1 = 0.4999	934.271	1394.8
308.15 K, x1 = 0.5645	948.386	1410.4
308.15 K, x1 = 0.6971	973.957	1443.4
308.15 K, x1 = 0.7909	988.935	1462.8
308.15 K, x1 = 0.8906	1004.73	1485.2
308.15 K, x1 = 1	1018.87	1506
313.15 K, x1 = 0.0997	805.495	1252.2
313.15 K, x1 = 0.2019	844.503	1286.4
313.15 K, x1 = 0.2953	875.146	1316.3
313.15 K, x1 = 0.4033	905.801	1347.6
313.15 K, x1 = 0.4999	929.461	1374.7
313.15 K, x1 = 0.5645	943.637	1390.2
313.15 K, x1 = 0.6971	969.311	1423.3
313.15 K, x1 = 0.7909	984.35	1442.6
313.15 K, x1 = 0.8906	1000.21	1465.5
313.15 K, x1 = 1	1014.41	1486.8
318.15 K, x1 = 0.0997	800.149	1232.4
318.15 K, x1 = 0.2019	839.318	1266.8
318.15 K, x1 = 0.2953	870.091	1296.9
318.15 K, x1 = 0.4999	924.64	1354.8
318.15 K, x1 = 0.7909	979.759	1422.4
318.15 K, x1 = 0.8906	995.681	1445.9
318.15 K, x1 = 1	1009.95	1467.8
318.16 K, x1 = 0.4033	900.875	1327.4
318.16 K, x1 = 0.5645	938.874	1370.2
318.16 K, x1 = 0.6971	964.657	1403.3
323.15 K, x1 = 0.4033	895.938	1307.5
323.16 K, x1 = 0.0997	794.775	1212.6
323.16 K, x1 = 0.2019	834.109	1247.3
323.16 K, x1 = 0.2953	865.017	1277.6
323.16 K, x1 = 0.4999	919.805	1335
323.16 K, x1 = 0.5645	934.1	1350.3
323.16 K, x1 = 0.6971	959.996	1383.4
323.16 K, x1 = 0.7909	975.164	1402.4
323.16 K, x1 = 0.8906	991.156	1426.5
323.16 K, x1 = 1	1005.48	1448.9

O=C1CCCN1 [2-pyrrolidinone] + ClC(Cl)Cl
Details	mass density [kg/m3]	speed of sound [m/s]
293.15 K, x1 = 0.1002	1457.64	1033.4
293.15 K, x1 = 0.199	1424.67	1074.6
293.15 K, x1 = 0.3019	1388.18	1124.8
293.15 K, x1 = 0.4027	1351	1179
293.15 K, x1 = 0.5022	1313.31	1238.7
293.15 K, x1 = 0.697	1235.75	1374.5
293.15 K, x1 = 0.7992	1194.43	1457.3
293.15 K, x1 = 0.9	1152.99	1548.8
293.15 K, x1 = 1	1111.44	1649.3
293.16 K, x1 = 0.6054	1272.91	1307.2
295.15 K, x1 = 0.199	1421.54	–
295.15 K, x1 = 0.3019	1385.33	–
295.15 K, x1 = 0.4027	1348.4	–
295.15 K, x1 = 0.5022	1310.93	–
295.15 K, x1 = 0.6054	1270.72	–
295.15 K, x1 = 0.697	1233.71	–
295.15 K, x1 = 0.7992	1192.54	–
295.15 K, x1 = 0.9	1151.23	–
298.15 K, x1 = 0.1002	1449.07	1017.4
298.15 K, x1 = 0.199	1416.87	1059.6
298.15 K, x1 = 0.3019	1381.1	1109.8
298.15 K, x1 = 0.4027	1344.53	1164.5
298.15 K, x1 = 0.5022	1307.38	1223.7
298.15 K, x1 = 0.6054	1267.47	1292.9
298.15 K, x1 = 0.697	1230.66	1358.9
298.15 K, x1 = 1	1107.35	1632.9
298.16 K, x1 = 0.7992	1189.72	1442.2
298.16 K, x1 = 0.9	1148.6	1533.3
301.15 K, x1 = 1	1104.88	–
303.15 K, x1 = 0.1002	1440.46	1001.5
303.15 K, x1 = 0.199	1409.07	1044
303.15 K, x1 = 0.3019	1374	1094.7
303.15 K, x1 = 0.4027	1338.05	1149.5
303.15 K, x1 = 0.5022	1301.43	1208.6
303.15 K, x1 = 0.697	1225.58	1343.1
303.15 K, x1 = 0.7992	1184.99	1426.5
303.15 K, x1 = 0.9	1144.21	1517.3
303.15 K, x1 = 1	1103.26	1616.7
303.16 K, x1 = 0.6054	1262	1278.2
308.15 K, x1 = 0.1002	1431.81	985.52
308.15 K, x1 = 0.199	1401.22	1028.3
308.15 K, x1 = 0.4027	1331.55	1134.4
308.15 K, x1 = 0.5022	1295.47	1193.5
308.15 K, x1 = 0.6054	1256.52	1263.1
308.15 K, x1 = 0.697	1220.48	1327.1
308.15 K, x1 = 0.7992	1180.28	1411
308.15 K, x1 = 0.9	1139.82	1501.5
308.15 K, x1 = 1	1099.17	1600.5
308.16 K, x1 = 0.3019	1366.88	1079.5
313.15 K, x1 = 1	1095.08	1584.5
318.16 K, x1 = 1	1091	1568.6
323.16 K, x1 = 1	1086.92	1552.8
